Results on 1 substance are retold here after US10287337B2 (priority 2015, dated 2019).

In assay [1] the test system is tibial neuroma-induced neuropathic pain in rats. Kind of assay: Tibial neuroma transposition model, neuroma tenderness. Type of assay: in vivo, rat. The following applies: injected into skin over neuroma site. The source says:
Sprague Dawley rats (male, approximately 400 g) were undergone surgery as described by Dorsi et al., briefly, a 2-3 cm incision was made through the skin and subcutaneous fascia of the ventral surface of the pelvic leg extending from the tarsometatarsal joint to approximately 1 cm distal to the level of the stifle the nerve was isolated and the posterior tibial branch was ligated and then sharply transected approximately 2 mm distal to the ligature, as illustrated in FIG. 8A. After the medial skin incision closure, the rat was transferred to a recovery cage devoid of bedding and placed halfway upon a recirculating hot water pad until standing; once recovered, the rat was returned to its home cage and monitored daily for signs of pain and wound dehiscence.
The rats were allowed to recover from the surgical procedure before beginning behavioral testing to assess neuroma development. On post-operative days 7 and 14, rats were assessed for mechanical pain using the “up-down” method of Von Frey mechanical testing and direct mechanical stimulation of the neuroma (referred to as neuroma tenderness testing). Neuroma tenderness was tested by applying the 15 g filament to the neuroma site up to five times in a series with a three second break between applications; the series was completed and scored as a positive as soon as a positive withdrawal response is seen. […]

The test system of assay [2] is UVB radiation-induced inflammatory pain in rat cheek. In kind it is in vivo. The note with it: topical application 10 μM, 100 μL, 2% propylene glycol, UVB-irradiated cheek.

Consider “H-NFVPTNVGPFAF-NH2 [AFA-peptide 3, NH2-N-F-V-P-T-N-V-G-P-F-A-F-CONH2]”, for which the “duration of analgesic effect” value in assay [1] lay in the range of 3 to 4 h. Also, in assay [1] (0.3 and 1 μM, 50 μL), the “neuroma tenderness (in words)” value is on record as “reduced neuroma tenderness in dose-related manner”. In addition, in assay [2], the “A-delta-fiber-mediated responses (in words)” value was “little effects”.
